In assay [1] the test system is SB.mhdgc-1. Briefly: viability at highest tested concentration (MAXR) relative to DMSO; higher = less cytotoxic. The conditions noted are these: SB.mhdgc-1 (hereditary c.1380delA CDH1 gastric cancer). In short, it runs like this: (§1)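 The values represent viability normalised to DMSO, expressed at the highest concentration or as trapezoidal area under the curve. Cells were hereditary or sporadic patient-derived gastric cancer cells, 500 in 5 μL medium per 1536 well. They were dosed with 23 nL of compound in DMSO by pintool over 11 threefold dilutions, with each compound's top concentration recorded. CellTiter-Glo was applied 48 h later for 30 min at room temperature before luminescence was read on a ViewLux.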

The test system of assay [2] is SB.msgc-1. The description is as above. Particulars: SB.msgc-1 (sporadic gastric cancer). In short, it runs like this:
as §1

Assay [3] relates to SB.mhdgc-1. Put plainly: area under the dose-response curve of % viability (trapezoidal, 11 doses) (% viability x log10 concentration); higher = less cytotoxic. The conditions noted are these: SB.mhdgc-1 (hereditary c.1380delA CDH1 gastric cancer). In short, it runs like this:
as §1

In assay [4] the test system is SB.msgc-1. The assay is described as above. The conditions noted are these: SB.msgc-1 (sporadic gastric cancer). In outline: as §1

As a reminder, the viability is a read-out of living cells in per cent, often relative to untreated cells. Take `CCNC(=O)c1noc(-c2cc(C(C)C)c(O)cc2O)c1-c1ccc(CN2CCOCC2)cc1` [NVP-AUY922] (top concentration 46.0829 µM): the viability in assay [1] stood at 35%; in assay [2] it was 49.2%. Besides, the “area under the dose-response curve” value came out at 260 in assay [3] and 362 in assay [4].
In the case of `CO[C@@H]1C(N(C)C(=O)c2ccccc2)C[C@H]2O[C@]1(C)n1c3ccccc3c3c4c(c5c6ccccc6n2c5c31)C(=O)NC4=O` (some centres undefined) [Stauprimide] (top concentration 46.0829 µM), the viability in assay [1] was found to be 41.7%; in assay [2], 34.8%. Further, the figures for the “area under the dose-response curve” value in assay [3] and in assay [4] were 386 and 301, respectively.
As to `CC(N)C12CC3CC(CC(C3)C1)C2` (centres undefined) [Rimantadine] (top concentration 46.0829 µM), the viability in assay [1] came to 136%; in assay [2], 112%. For the same molecule, the “area under the dose-response curve” value in assay [3] was 569; in assay [4], 559.
`C[C@@H]1[C@H]\2[C@H](O)[C@H]3[C@H](N(C)C)\C(=C(C(N)=O)/C(=O)[C@@]3(O)\C(=C2C(=O)C4=C(O)C=CC=C14)O)O` [Doxycycline] (top concentration 46.0829 µM): the viability in assay [1] was 84%; in assay [2], 59.7%. Further, the “area under the dose-response curve” value stood at 507 in assay [3] and 467 in assay [4].
As to `C/C(=C\c1csc(C)n1)[C@@H]1C[C@@H]2O[C@@H]2CCC[C@H](C)[C@H](O)[C@@H](C)C(=O)C(C)(C)[C@@H](O)CC(=O)O1` [Epothilone A] (top concentration 46.0829 µM), the viability in assay [1] stood at 52.1%; in assay [2] it was 42.9%. Also, the “area under the dose-response curve” value is 246 in assay [3] and 256 in assay [4].
Take `O=C(CC12CC3CC(CC(C3)C1)C2)Nc1cccc2nc(NCCNCCO)ccc12` (top concentration 46.0829 µM): the viability in assay [1] amounted to 2.93%; in assay [2] it was 40.7%. For the same molecule, the “area under the dose-response curve” value was 358 in assay [3] and 498 in assay [4].
With `COc1ccc(Cn2ccc3ccc(C(=O)NO)cc32)cc1` (top concentration 46.0829 µM), the results for the viability in assay [1] and in assay [2] were 101% and 78.3%, respectively. The “area under the dose-response curve” value in assay [3] was determined as 559; in assay [4], 493.
In the case of `COc1ccc(CC2c3cc(OC)c(OC)cc3CC[N+]2(C)CCC(=O)OCCCCCOC(=O)CC[N+]2(C)CCc3cc(OC)c(OC)cc3C2Cc2ccc(OC)c(OC)c2)cc1OC.O=S(=O)([O-])c1ccccc1.O=S(=O)([O-])c1ccccc1` (centres undefined) [Cisatracurium besylate] (top concentration 7.37327 µM), the viability came out at 82.9% in assay [1] and 94% in assay [2]. Also, the “area under the dose-response curve” value turned out to be 511 in assay [3] and 558 in assay [4].
Turning to `O=C(CN1C(=O)C2(CCCC2)NC[C@H]1c1cc(F)cc(F)c1)Nc1ccc2c(c1)C[C@@]1(C2)C(=O)Nc2ncccc21` [MK-3207] (top concentration 46.0829 µM), the viability in assay [1] is 123%; in assay [2], 118%. Besides, the “area under the dose-response curve” value in assay [3] stood at 555; in assay [4], 573.
For the molecule `CN(C)CCOc1ccc(-c2nc(-c3ccncc3)c(-c3ccc4c(c3)CC/C4=N\O)[nH]2)cc1` (top concentration 46.0829 µM), the viability in assay [1] stood at 3.84%; in assay [2] it was 25.4%. Moreover, the “area under the dose-response curve” value is 496 in assay [3] and 474 in assay [4].
For the molecule `Cc1nc2cnc3ccc(C#Cc4cccnc4)cc3c2n1-c1ccc(C(C)(C)C#N)cc1` [BAG-956] (top concentration 46.0829 µM), the viability in assay [1] worked out at 0.508%; in assay [2], 25.4%. Besides, the “area under the dose-response curve” value in assay [3] stood at 207; in assay [4], 343.
In the same order, the values of `CNC1CCC(N(Cc2cccc(-c3ccncc3)c2)C(=O)c2sc3c(F)ccc(F)c3c2Cl)CC1` (centres undefined) [Hh-Ag1.5] (top concentration 46.0829 µM) are 0.908%, 17.9%, 426 and 426.
For `c1ccc(CCCN2CCN(CCOC(c3ccccc3)c3ccccc3)CC2)cc1` (top concentration 46.0829 µM), the results for the viability in assay [1] and in assay [2] were 9.55% and 30.4%, respectively. Moreover, the “area under the dose-response curve” value is 430 in assay [3] and 486 in assay [4].
Regarding `COc1cc2ncnc(Nc3cccc(Br)c3)c2cc1OC` (top concentration 46.0829 µM), the viability came out at 27.1% in assay [1] and 33.3% in assay [2]. In addition, the “area under the dose-response curve” value in assay [3] came out at 282; in assay [4], 339.
For the molecule `CCN1\C=C(\C(O)=O)C(=O)C2=C1N=C(N3CCNCC3)C(=C2)F` [Enoxacin] (top concentration 46.0829 µM), the figures for the viability in assay [1] and in assay [2] were 65.9% and 80.9%, respectively. The “area under the dose-response curve” value in assay [3] turned out to be 397; in assay [4], 414.
The corresponding values for `O=c1[nH]c2ccccc2n1C1CCN(Cc2ccc(-c3nc4cc5nc[nH]c5cc4nc3-c3ccccc3)cc2)CC1` [AKT inhibitor VIII] (top concentration 46.0829 µM) are 44.3%, 38.8%, 419 and 482.
As to `CC(C)C1NC(=O)C(NC(=O)C2=C3\N=C\4/C(=C(C)\C(=O)\C(=C4C(=O)NC5C(C)OC(=O)C(C(C)C)N(C)C(=O)CN(C)C(=O)C6CCCN6C(=O)C(NC5=O)C(C)C)N)OC3=C(C)C=C2)C(C)OC(=O)C(C(C)C)N(C)C(=O)CN(C)C(=O)C7CCCN7C1=O` (centres undefined) [Actinomycin D] (top concentration 46.0829 µM), the viability was found to be 47.9% in assay [1] and 44.2% in assay [2]. The “area under the dose-response curve” value in assay [3] turned out to be 273; in assay [4] it was 233.
For the molecule `N#C/C(C(=O)c1ccc(Cl)cc1Cl)=C1/NC(=O)c2ccc(Cl)cc2N1` [Cilliobrevin D] (top concentration 46.0829 µM), the values for the viability in assay [1] and in assay [2] were 81.9% and 66.9%, respectively. Also, the “area under the dose-response curve” value turned out to be 474 in assay [3] and 496 in assay [4].
In the case of `N#C[C@@H]1C[C@@H]2C[C@@H]2N1C(=O)[C@@H](N)C12CC3CC(CC(O)(C3)C1)C2` [Saxagliptin] (top concentration 46.0829 µM), the viability was 116% in assay [1] and 62.8% in assay [2]. In addition, the “area under the dose-response curve” value is 559 in assay [3] and 482 in assay [4].
The corresponding values for `Nc1n[nH]c2nnc(-c3c(-c4ccccc4)nn4ccccc34)cc12` (top concentration 46.0829 µM) are 28%, 14.2%, 438 and 445.
Consider `Nc1nc(-c2nn(Cc3ccccc3F)c3ncccc23)nc(N)c1N1CCOCC1` [BAY-41-8543] (top concentration 46.0829 µM), for which the viability came to 82.3% in assay [1] and 73% in assay [2]. Further, the “area under the dose-response curve” value in assay [3] was found to be 568; in assay [4], 503.
In the same order, the values of `C#CCC(Cc1cnc2nc(N)nc(N)c2n1)c1ccc(C(=O)N[C@@H](CCC(=O)O)C(=O)O)cc1` (some centres undefined) [Pralatrexate] (top concentration 46.0829 µM) are 55.7%, 36.8%, 394 and 332.
Take `O=C([O-])C[C@H](O)C[C@H](O)/C=C/c1c(C2CC2)nc2ccccc2c1-c1ccc(F)cc1` [Pitavastatin calcium] (top concentration 46.0829 µM): the values for the viability in assay [1] and in assay [2] were 85.8% and 82%, respectively. Also, the “area under the dose-response curve” value in assay [3] is 489; in assay [4] it was 528.
Consider `CC/1=C/C(=O)N(O)/C(=C1)C2CCCCC2` [ciclopirox] (top concentration 46.0829 µM), for which the results for the viability in assay [1] and in assay [2] were 7.01% and 48.1%, respectively. Besides, the “area under the dose-response curve” value in assay [3] was determined as 395; in assay [4] it was 493.
As to `CN1CCN(c2cc(C(=O)Nc3ccc4c(c3)-c3c(c(C(N)=O)nn3-c3ccc(F)cc3)CC4)c(Cl)cn2)CC1` [PHA-408] (top concentration 46.0829 µM), the viability in assay [1] was determined as 2.85%; in assay [2] it was 18%. Besides, the “area under the dose-response curve” value in assay [3] came to 441; in assay [4], 443.
Consider `CO[C@H]1C[C@@H]2CC[C@@H](C)[C@@](O)(O2)C(=O)C(=O)N2CCCC[C@H]2C(=O)O[C@H]([C@@H](C)C[C@@H]2CC[C@@H](O)[C@H](OC)C2)CC(=O)[C@H](C)/C=C(\C)[C@@H](O)[C@@H](OC)C(=O)[C@H](C)C[C@H](C)/C=C/C=C/C=C/1C` [Sirolimus] (top concentration 46.0829 µM), for which the viability in assay [1] worked out at 67.2%; in assay [2], 76.1%. Besides, the “area under the dose-response curve” value in assay [3] was found to be 370; in assay [4], 470.
The corresponding values for `c1cc(-c2cnn3cc(-c4ccc(OCCN5CCCCC5)cc4)cnc23)ccn1` [Dorsomorphin] (top concentration 46.0829 µM) are 2.62%, 2.98%, 436 and 433.
For the molecule `CC(=O)N1CCN(c2ccc(OCc3nn(C)c(C)c3-c3cccc4c(CCCOc5cccc6ccccc56)c(C(=O)O)n(Cc5cccnc5)c34)cc2)CC1` (top concentration 46.0829 µM), the viability was 0.82% in assay [1] and 2.94% in assay [2]. Besides, the “area under the dose-response curve” value turned out to be 321 in assay [3] and 355 in assay [4].
For `CC(C)(Oc1ccc(C2CC2(Cl)Cl)cc1)C(=O)O` (centres undefined) [Ciprofibrate] (top concentration 92.1659 µM), the results for the viability in assay [1] and in assay [2] were 26.6% and 58%, respectively. The entries for the “area under the dose-response curve” value in assay [3] and in assay [4] were 514 and 588, respectively.
For `COc1cc(C[C@@H](CO)[C@H](CO)Cc2ccc(O)c(OC)c2)ccc1O` [Secoisolariciresinol] (top concentration 46.0829 µM), the values for the viability in assay [1] and in assay [2] were 50.9% and 5.29%, respectively. In addition, the entries for the “area under the dose-response curve” value in assay [3] and in assay [4] were 424 and 285, respectively.
Regarding `O=C(C1CC1)N1CC[C@@H](Cn2c(-c3ccc(-c4ccc5occc5c4)cc3)nc3cnccc32)C1` (top concentration 46.0829 µM), the viability was determined as 63.9% in assay [1] and 54.8% in assay [2]. The “area under the dose-response curve” value in assay [3] was determined as 536; in assay [4], 508.
